Data on 1 compound can be found in patent publication US11464763B2, “Parasiticidal compositions comprising an isoxazoline active agent, methods and uses thereof” (BOEHRINGER INGELHEIM ANIMAL HEALTH USA INC., priority 2011, dated 2022).

The assay relates to Ixodes ricinus. The assay can be described thus: Spot-on efficacy against induced Ixodes ricinus tick infestations in cats (Example 10). Format: in vivo. The conditions noted are these: for prevention of the infestation of I. ricinus: 2.5% w/v in DMI. How it is done: The efficacy of spot-on formulations comprising Cmpd. A were studied against induced infestations of Ixodes ricinus ticks in cats. Three treatment groups with six cats per group were randomly allocated: Group 1—Control, untreated; Group 2—Cmpd. A (2.5% w/v in DMI) at 0.1 ml/kg body weight (2.5 mg/kg); and Group 3—Cmpd. A (5.0% w/v in DMI) at 0.1 ml/kg body weight (5 mg/kg). Treatment was administered once on Day 0 and efficacy was assessed based on 48-hour tick (I. ricinus) counts following weekly experimental challenge from Day 7 on. […] In fact, the topical spot-on formulation offered substantial protection against I. ricinus ticks until the last day of assessment—Day 93. Due to limitations on tick availability 5 mg/kg was tested only up to Day 44 with 100% efficacy. The excellent long-lasting efficacy of the formulation of the invention against I. ricinus ticks in cats is very surprising and unexpected.

With `O=C(CNC(=O)c1ccc(C2=NOC(c3cc(Cl)cc(C(F)(F)F)c3)(C(F)(F)F)C2)c2ccccc12)NCC(F)(F)F` (stereo not shown) [Compound A, 4-[5-[3-chloro-5-(trifluoromethyl)phenyl]-4,5-dihydro-5-(trifluoromethyl)-3-isoxazolyl]-N-[2-oxo-2-[(2,2,2-trifluoroethyl)amino]ethyl]-1-naphthalanecarboxamide], for the setting “5 mg/kg, up to Day 44”, the “efficacy against I. ricinus” value is 100%. The “prevention of the infestation of I. ricinus” value (2.5 mg/kg, until Day 56) was “completely prevented” and the “prevention of the infestation of I. ricinus” value (2.5 mg/kg, until at least Day 77) is given as above 90%. The “% Reduction Ticks” value runs as follows: (Group 2: 2.5% w/v in DMI, 2.5 mg/kg, Day 2) 23.71%; (Group 2: 2.5% w/v in DMI, 2.5 mg/kg, Day 9) 100.00%; (Group 2: 2.5% w/v in DMI, 2.5 mg/kg, Day 23) 99.60%; (Group 2: 2.5% w/v in DMI, 2.5 mg/kg, Day 30) 100.00%; (Group 2: 2.5% w/v in DMI, 2.5 mg/kg, Day 37) 99.58%; (Group 2: 2.5% w/v in DMI, 2.5 mg/kg, Day 44) 100.00%. In addition, the “% Reduction Ticks” value runs as follows: (Group 2: 2.5% w/v in DMI, 2.5 mg/kg, Day 51) 100.00%; (Group 2: 2.5% w/v in DMI, 2.5 mg/kg, Day 58) 100.00%; (Group 2: 2.5% w/v in DMI, 2.5 mg/kg, Day 65) 99.02%; (Group 2: 2.5% w/v in DMI, 2.5 mg/kg, Day 72) 99.21%; (Group 2: 2.5% w/v in DMI, 2.5 mg/kg, Day 79) 95.54%; (Group 2: 2.5% w/v in DMI, 2.5 mg/kg, Day 86) 84.92%. In addition, the “% Reduction Ticks” value (Group 2: 2.5% w/v in DMI, 2.5 mg/kg, Day 93) was found to be 76.65%; the “% Reduction Ticks” value (Group 3: 5.0% w/v in DMI, 5 mg/kg, Day 2) came out at 70.27%; the “% Reduction Ticks” value (Group 3: 5.0% w/v in DMI, 5 mg/kg, Day 9) turned out to be 100.00%; the “% Reduction Ticks” value (Group 3: 5.0% w/v in DMI, 5 mg/kg, Day 23) is on record as 100.00%; the “% Reduction Ticks” value (Group 3: 5.0% w/v in DMI, 5 mg/kg, Day 30) is 100.00%; the “% Reduction Ticks” value (Group 3: 5.0% w/v in DMI, 5 mg/kg, Day 37) was found to be 100.00%. The “% Reduction Ticks” value (Group 3: 5.0% w/v in DMI, 5 mg/kg, Day 44) is recorded as 100.00%.
